Results taken from ChEMBL document CHEMBL3044607, “Quantitative structureactivity relationships of imidacloprid and its analogs with substituents at the C5 position on the pyridine ring in the neuroblocking activity” (J Pestic Sci, 2006).

Test system: Periplaneta americana
Assay: Insecticidal activity against Periplaneta americana (American cockroach) assessed as neuroblocking concentration
Assay type: functional

`O=[N+]([O-])/N=C1\NCCN1Cc1cnc(Cl)c(Br)c1` was tested, and the “log(1/BC)” value was 5.51.

`O=[N+]([O-])/N=C1\NCCN1Cc1cnc(Cl)c(I)c1` was tested, and the “log(1/BC)” value was 5.3.

With `COc1cc(CN2CCN/C2=N\[N+](=O)[O-])cnc1Cl` the “log(1/BC)” value was 4.98.

For `CCOc1cc(CN2CCN/C2=N\[N+](=O)[O-])cnc1Cl`, the “log(1/BC)” value was 4.66.

With `CCCOc1cc(CN2CCN/C2=N\[N+](=O)[O-])cnc1Cl` the “log(1/BC)” value was 4.56.

For `CC(C)Oc1cc(CN2CCN/C2=N\[N+](=O)[O-])cnc1Cl`, the “log(1/BC)” value was 4.46.

For `CCCCOc1cc(CN2CCN/C2=N\[N+](=O)[O-])cnc1Cl`, the “log(1/BC)” value was 4.58.

For `CCCCCOc1cc(CN2CCN/C2=N\[N+](=O)[O-])cnc1Cl`, the “log(1/BC)” value was 3.59.

For `Cc1cc(CN2CCN/C2=N\[N+](=O)[O-])cnc1Cl`, the “log(1/BC)” value was 5.25.

`CCc1cc(CN2CCN/C2=N\[N+](=O)[O-])cnc1Cl` was tested, and the “log(1/BC)” value was 4.66.

In the case of `CCCc1cc(CN2CCN/C2=N\[N+](=O)[O-])cnc1Cl`, the “log(1/BC)” value is reported as 4.51.

`CCCCc1cc(CN2CCN/C2=N\[N+](=O)[O-])cnc1Cl` was tested, and the “log(1/BC)” value was 3.79.

In the case of `O=[N+]([O-])/N=C1\NCCN1Cc1cnc(Cl)c(-c2ccccc2)c1`, the “log(1/BC)” value is reported as 4.46.

In the case of `O=[N+]([O-])/N=C1\NCCN1Cc1cnc(Cl)c(C(F)(F)F)c1`, the “log(1/BC)” value is reported as 4.43.

`COC(=O)c1cc(CN2CCN/C2=N\[N+](=O)[O-])cnc1Cl` was tested, and the “log(1/BC)” value was 3.92.

For `N#Cc1cc(CN2CCN/C2=N\[N+](=O)[O-])cnc1Cl`, the “log(1/BC)” value was 4.59.

`O=[N+]([O-])/N=C1\NCCN1Cc1cnc(Cl)c([N+](=O)[O-])c1` was tested, and the “log(1/BC)” value was 3.6.

`[N-]=[N+]=Nc1cc(CN2CCN/C2=N\[N+](=O)[O-])cnc1Cl` [5-AZIDOIMIDACLOPRID] was tested, and the “log(1/BC)” value was 4.98.

With `O=[N+]([O-])/N=C1\NCCN1Cc1cnc(Cl)c(Cl)c1` [5-CHLOROIMIDACLOPRID] the “log(1/BC)” value was 5.61.

In the case of `O=[N+]([O-])/N=C1/NCCN1Cc1cnc(Cl)c(F)c1` [5-FLUOROIMIDACLOPRID], the “log(1/BC)” value is reported as 5.99.

`O=[N+]([O-])/N=C1\NCCN1Cc1ccc(Cl)nc1` [IMIDACLOPRID] was tested, and the “log(1/BC)” value was 5.7.
